Laboratory results: patent US20150004224A1
“And” between values parts separate entries of the source, which are not always exact repeats. Equal entries are not always repeated.

Test system: Hep G2 hepatocarcinoma cells
Assay: Gene expression profiling of Hep G2 cells incubated with EPA, DHA, DPA (Illumina HT-12 bead arrays, Ingenuity iReport)
[1] = EPA 100 μM, DHA 40 μM, DPA 11 μM
[2] = top genes uniquely regulated by DPA (11 μM), 48 hours

CC/C=C\C/C=C\C/C=C\C/C=C\C/C=C\C/C=C\CCC(=O)O [DHA, docosahexaenoic acid (C22:6 n-3)]
FOXO3 regulation (top genes uniquely regulated by DHA) (DHA 40 μM): ← | LSMD1 regulation (top genes uniquely regulated by DHA) (DHA 40 μM): ↑ | MAP2K2 regulation (top genes uniquely regulated by DHA) (DHA 40 μM): ↓ | MRPS34 regulation (top genes uniquely regulated by DHA) (DHA 40 μM): ↑ | MT1X regulation (top genes uniquely regulated by DHA) (DHA 40 μM): ↑ | NFKB1 regulation (top genes uniquely regulated by DHA) (DHA 40 μM): ← | SNORA62 regulation (top genes uniquely regulated by DHA) (DHA 40 μM): ↑ | TNFSF11 regulation (top genes uniquely regulated by DHA) (DHA 40 μM): ← | ZNF652 regulation (top genes uniquely regulated by DHA) (DHA 40 μM): ↓ | AHSA2 regulation (top genes commonly regulated) [1]: ↑ | ALPP down-regulation: symbol for regulation in common [1]: ¶(DPA) | ALPP regulation (top genes commonly regulated) [1]: ↓ | CATSPER2 regulation (top genes commonly regulated) [1]: ↓ | CCBE1 down-regulation: symbol for regulation in common [1]: ¶(DPA) | CCBE regulation (top genes commonly regulated) [1]: ↓ | CCL20 regulation (top genes commonly regulated) [1]: ↓ | CDKN2AIPNL regulation (top genes commonly regulated) [1]: ↓ | DDX51 down-regulation: symbol for regulation in common [1]: ¶(DPA) | DDX51 regulation (top genes commonly regulated) [1]: ↓ | HIST2H2AA3/HIST2H2AA4 up-regulation: symbol for regulation in common [1]: ¶(EPA) | IL8 regulation (top genes commonly regulated) [1]: ↓ | LOX up-regulation: symbol for regulation in common [1]: ¶(EPA) | MST1 (includes EG: 15235) regulation (top genes commonly regulated) [1]: ↑ | MST1 (includes EG: 15235) up-regulation: symbol for regulation in common [1]: ¶(DPA)

CC/C=C\C/C=C\C/C=C\C/C=C\C/C=C\CCCCCC(=O)O [DPA, docosapentaenoic acid (C22:5 n-3)]
number of genes involved in lipid metabolism responsive (1 μM DPA): 2 genes | fewer genes affected at the lower than at the higher DPA concentration (1 μM vs 11 μM DPA): 10 fold | increase in number of cardiovascular physiology genes affected (11 μM DPA vs 1 μM DPA): five-fold | number of lipid metabolism genes uniquely responding with statistically significant change in expression (11 μM DPA, not 1 μM): 22 genes | number of genes uniquely responsive to the higher, but not the lower, DPA level (11 μM vs 1 μM DPA): 310 genes and 300 genes | Cardiovascular: Total gene responses Low [DPA] (DPA 1 μM): 10 | Inflammatory: Total gene responses Low [DPA] (DPA 1 μM): 18 | Lipid metabolism: Total gene responses Low [DPA] (DPA 1 μM): 2 | Cardiovascular: Gene responses in common (DPA 1 μM and 11 μM): 6 | Inflammatory: Gene responses in common (DPA 1 μM and 11 μM): 4 | Lipid metabolism: Gene responses in common (DPA 1 μM and 11 μM): 0 | APOA2 expression Fold Change (DPA 11 μM): −1.229 | CD83 expression Fold Change (DPA 11 μM): −1.629 | Cardiovascular: Total gene responses High [DPA] (DPA 11 μM): 51 | DGAT1 expression Fold Change (DPA 11 μM): 1.602 | DNAJB1 expression Fold Change (DPA 11 μM): −1.489 | FGFR3 expression Fold Change (DPA 11 μM): 1.336 | GNAI3 expression Fold Change (DPA 11 μM): 1.455 | IL8 expression Fold Change (DPA 11 μM): −2.535 | IL18 (includes EG: 16173) expression Fold Change (DPA 11 μM): −1.347 | IL32 expression Fold Change (DPA 11 μM): −1.629 | IP6K1 expression Fold Change (DPA 11 μM): −1.242 | IP6K2 expression Fold Change (DPA 11 μM): 1.319 | Inflammatory: Total gene responses High [DPA] (DPA 11 μM): 22 | KIT expression Fold Change (DPA 11 μM): 1.239 | Lipid metabolism: Total gene responses High [DPA] (DPA 11 μM): 22 | NFKB1 expression Fold Change (DPA 11 μM): −1.386 | PDPN (includes EG: 10630) expression Fold Change (DPA 11 μM): −1.307 | PGF expression Fold Change (DPA 11 μM): −1.284 | PIP4K2B expression Fold Change (DPA 11 μM): −1.578 | PLA2G16 expression Fold Change (DPA 11 μM): −1.337 | PLIN5 expression Fold Change (DPA 11 μM): −1.371 | PTGR2 expression Fold Change (DPA 11 μM): −1.416 | PTX3 expression Fold Change (DPA 11 μM): −1.536 | RGS2 (includes EG: 19735) expression Fold Change (DPA 11 μM): 1.289 | STIP1 expression Fold Change (DPA 11 μM): −1.469 | ACADSB (short/branched chain acyl-CoA dehydrogenase) expression (DPA at 11 μM): upregulates | HMGCR expression (DPA at 11 μM): downregulated | SQLE expression (DPA at 11 μM): downregulated | AHSA2 regulation (top genes commonly regulated) [1]: ↑ | AHSA2 up-regulation: symbol for regulation in common [1]: →♦ | ALPP down-regulation: symbol for regulation in common [1]: ¶(DHA) | ALPP regulation (top genes commonly regulated) [1]: ↓ | CATSPER2 down-regulation: symbol for regulation in common [1]: →♦ | CATSPER2 regulation (top genes commonly regulated) [1]: ↓ | CCBE1 down-regulation: symbol for regulation in common [1]: ¶(DHA) | CCBE regulation (top genes commonly regulated) [1]: ↓ | CCL20 regulation (top genes commonly regulated) [1]: ↓ | CDKN2AIPNL regulation (top genes commonly regulated) [1]: ↓ | DDX51 down-regulation: symbol for regulation in common [1]: ¶(DHA) | DDX51 regulation (top genes commonly regulated) [1]: ↓ | IL8 regulation (top genes commonly regulated) [1]: ↓ | MST1 (includes EG: 15235) regulation (top genes commonly regulated) [1]: ↑ | MST1 (includes EG: 15235) up-regulation: symbol for regulation in common [1]: →¶(DHA) | RELB down-regulation: symbol for regulation in common [1]: ¶(EPA) | RELB regulation (top genes commonly regulated) [1]: ↓ | SRSF1 regulation (top genes commonly regulated) [1]: ↑ | SRSF1 up-regulation: symbol for regulation in common [1]: →¶(EPA) | increase in number of genes involved in inflammatory pathways (printed: observed at 1 μM): only a minor increase | ALDOC gene regulation [2]: ↑ | AMT gene regulation [2]: ↑ | HNRNPA2B1 gene regulation [2]: ↑ | MGC16121 gene regulation [2]: ↑ | PRKCD gene regulation [2]: ← | QRFPR gene regulation [2]: ↓ | RELA (inhibited) gene regulation [2]: ← | SRSF5 gene regulation [2]: ↑ | STK36 gene regulation [2]: ↑ | TLR7 (inhibited) gene regulation [2]: ← | TOP3B gene regulation [2]: ↑ | ZNF14 gene regulation [2]: ↑

CC/C=C\C/C=C\C/C=C\C/C=C\C/C=C\CCCC(=O)O [EPA, eicosapentaenoic acid (C20:5 n-3)]
Beta-estradiol (inhibited) (top genes uniquely regulated by EPA) (EPA 100 μM): ← | GNAI3 regulation (top genes uniquely regulated by EPA) (EPA 100 μM): ↑ | GOS2 regulation (top genes uniquely regulated by EPA) (EPA 100 μM): ↓ | HERPUD1 regulation (top genes uniquely regulated by EPA) (EPA 100 μM): ↓ | HIST2H2BE (includes others) regulation (top genes uniquely regulated by EPA) (EPA 100 μM): ↑ | IER3 regulation (top genes uniquely regulated by EPA) (EPA 100 μM): ↓ | IL2 (inhibited) (top genes uniquely regulated by EPA) (EPA 100 μM): ← | Lipopolysaccharide (inhibited) (top genes uniquely regulated by EPA) (EPA 100 μM): ← | MAT2A regulation (top genes uniquely regulated by EPA) (EPA 100 μM): ↑ | NFKBIA regulation (top genes uniquely regulated by EPA) (EPA 100 μM): ↓ | NFkB (complex) (inhibited) (top genes uniquely regulated by EPA) (EPA 100 μM): ← | RGS2 (includes EG: 19735) regulation (top genes uniquely regulated by EPA) (EPA 100 μM): ↑ | AHSA2 regulation (top genes commonly regulated) [1]: ↑ | CATSPER2 regulation (top genes commonly regulated) [1]: ↓ | CCL20 regulation (top genes commonly regulated) [1]: ↓ | CDKN2AIPNL regulation (top genes commonly regulated) [1]: ↓ | HIST1H3A (includes others) up-regulation: symbol for regulation in common [1]: ¶(DHA) | HIST2H2AA3/HIST2H2AA4 up-regulation: symbol for regulation in common [1]: ¶(DHA) | IL8 regulation (top genes commonly regulated) [1]: ↓ | LOX up-regulation: symbol for regulation in common [1]: ¶(DHA) | RELB down-regulation: symbol for regulation in common [1]: ¶(DPA) | RELB regulation (top genes commonly regulated) [1]: ↓ | SRSF1 regulation (top genes commonly regulated) [1]: ↑ | SRSF1 up-regulation: symbol for regulation in common [1]: ¶(DPA)
